# Source: PubChem BioAssay AID2060486 (Molecular Pharmacology Branch, DTP, NCI, 2025)
# Tested on: IGROV1 complex spheroids (HUVEC, MSC), viability % test/control
# Assay: Anticancer human tumor IGROV1 cell line growth inhibition [GQUAD];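 also: spheroids exposed to compounds for 7 days before readout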;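 as to viability, T/C: 100% = DMSO vehicle control viability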
# Conditions: for IC50: curve of first compound; for viability, T/C: stronger effect = lower value
# Method in brief: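 Tumor cells were grown as complex spheroids with HUVEC endothelial cells and mesenchymal stem cells as stroma. G-quadruplex stabilizers were combined with targeted agents over half-log dilutions from near the clinical Cmax, or from 10 microM.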
# [1] = second compound 0.0316 µM, first compound 0.0316 µM
# [2] = second compound 0.0316 µM, first compound 0.1 µM
# [3] = second compound 0.0316 µM, first compound 0.316 µM
# [4] = second compound 0.0316 µM, first compound 1 µM
# [5] = second compound 0.0316 µM, first compound 3.16 µM
# [6] = second compound 0.0316 µM, first compound 10 µM
# [7] = second compound 0.1 µM, first compound 0.0316 µM
# [8] = second compound 0.1 µM, first compound 0.1 µM
# [9] = second compound 0.1 µM, first compound 0.316 µM
# [10] = second compound 0.1 µM, first compound 1 µM
# [11] = second compound 0.1 µM, first compound 3.16 µM
# [12] = second compound 0.1 µM, first compound 10 µM
# [13] = second compound 0.316 µM, first compound 0.0316 µM
# [14] = second compound 0.316 µM, first compound 0.1 µM
# [15] = second compound 0.316 µM, first compound 0.316 µM
# [16] = second compound 0.316 µM, first compound 1 µM
# [17] = second compound 0.316 µM, first compound 3.16 µM
# [18] = second compound 0.316 µM, first compound 10 µM
# [19] = second compound 1 µM, first compound 0.0316 µM
# [20] = second compound 1 µM, first compound 0.1 µM
# [21] = second compound 1 µM, first compound 0.316 µM
# [22] = second compound 1 µM, first compound 1 µM
# [23] = second compound 1 µM, first compound 3.16 µM
# [24] = second compound 1 µM, first compound 10 µM
# [25] = second compound 3.16 µM, first compound 0.0316 µM
# [26] = second compound 3.16 µM, first compound 0.1 µM
# [27] = second compound 3.16 µM, first compound 0.316 µM
# [28] = second compound 3.16 µM, first compound 1 µM
# [29] = second compound 3.16 µM, first compound 3.16 µM
# [30] = second compound 3.16 µM, first compound 10 µM
# [31] = second compound 10 µM, first compound 0.0316 µM
# [32] = second compound 10 µM, first compound 0.1 µM
# [33] = second compound 10 µM, first compound 0.316 µM
# [34] = second compound 10 µM, first compound 1 µM
# [35] = second compound 10 µM, first compound 3.16 µM
# [36] = second compound 10 µM, first compound 10 µM
# [37] = second compound 0.0316 µM, first compound 0.000999 µM
# [38] = second compound 0.0316 µM, first compound 0.00316 µM
# [39] = second compound 0.0316 µM, first compound 0.00999 µM
# [40] = second compound 0.0316 µM, first compound 0.0999 µM
# [41] = second compound 0.1 µM, first compound 0.000999 µM
# [42] = second compound 0.1 µM, first compound 0.00316 µM
# [43] = second compound 0.1 µM, first compound 0.00999 µM
# [44] = second compound 0.1 µM, first compound 0.0999 µM
# [45] = second compound 0.316 µM, first compound 0.000999 µM
# [46] = second compound 0.316 µM, first compound 0.00316 µM
# [47] = second compound 0.316 µM, first compound 0.00999 µM
# [48] = second compound 0.316 µM, first compound 0.0999 µM
# [49] = second compound 1 µM, first compound 0.000999 µM
# [50] = second compound 1 µM, first compound 0.00316 µM
# [51] = second compound 1 µM, first compound 0.00999 µM
# [52] = second compound 1 µM, first compound 0.0999 µM
# [53] = second compound 3.16 µM, first compound 0.000999 µM
# [54] = second compound 3.16 µM, first compound 0.00316 µM
# [55] = second compound 3.16 µM, first compound 0.00999 µM
# [56] = second compound 3.16 µM, first compound 0.0999 µM
# [57] = second compound 10 µM, first compound 0.000999 µM
# [58] = second compound 10 µM, first compound 0.00316 µM
# [59] = second compound 10 µM, first compound 0.00999 µM
# [60] = second compound 10 µM, first compound 0.0999 µM
smiles,measurement,setting,value
C=CC(=O)N1CCN(c2nc(=O)n(-c3c(C)ccnc3C(C)C)c3nc(-c4c(O)cccc4F)c(F)cc23)C(C)C1 (stereo not drawn) + Cc1[nH]c2ccc(F)cc2c1-c1nc2c3cccnc3c3ncccc3c2[nH]1,IC50,second compound 0.0316 µM,> 10000 nM
same,IC50,second compound 0.1 µM,> 10000 nM
same,IC50,second compound 0.316 µM,> 10000 nM
same,IC50,second compound 1 µM,< 31.6 nM
same,IC50,second compound 3.16 µM,< 31.6 nM
same,IC50,second compound 10 µM,< 31.6 nM
same,"viability, T/C",[1],104%
same,"viability, T/C",[2],70.5%
same,"viability, T/C",[3],103%
same,"viability, T/C",[4],45.8%
same,"viability, T/C",[5],94.8%
same,"viability, T/C",[6],87.5%
same,"viability, T/C",[7],90.2%
same,"viability, T/C",[8],89.7%
same,"viability, T/C",[9],80.6%
same,"viability, T/C",[10],75.1%
same,"viability, T/C",[11],92.8%
same,"viability, T/C",[12],99.2%
same,"viability, T/C",[13],70.5%
same,"viability, T/C",[14],93.9%
same,"viability, T/C",[15],76.2%
same,"viability, T/C",[16],78.9%
same,"viability, T/C",[17],80%
same,"viability, T/C",[18],56.8%
same,"viability, T/C",[19],3.43%
same,"viability, T/C",[20],3.79%
same,"viability, T/C",[21],6.26%
same,"viability, T/C",[22],4.23%
same,"viability, T/C",[23],4.27%
same,"viability, T/C",[24],2.01%
same,"viability, T/C",[25],3.63%
same,"viability, T/C",[26],4.79%
same,"viability, T/C",[27],4.74%
same,"viability, T/C",[28],4.03%
same,"viability, T/C",[29],4.45%
same,"viability, T/C",[30],2.13%
same,"viability, T/C",[31],4.57%
same,"viability, T/C",[32],4.39%
same,"viability, T/C",[33],4.91%
same,"viability, T/C",[34],5.12%
same,"viability, T/C",[35],4.17%
same,"viability, T/C",[36],2.46%
CCc1c2c(nc3ccc(O)cc13)-c1cc3c(c(=O)n1C2)COC(=O)[C@]3(O)CC + Cc1[nH]c2ccc(F)cc2c1-c1nc2c3cccnc3c3ncccc3c2[nH]1,IC50,second compound 0.0316 µM,1.23 nM
same,IC50,second compound 0.1 µM,1.22 nM
same,IC50,second compound 0.316 µM,< 0.999 nM
same,IC50,second compound 1 µM,< 0.999 nM
same,IC50,second compound 3.16 µM,< 0.999 nM
same,IC50,second compound 10 µM,< 0.999 nM
same,"viability, T/C",[37],57.7%
same,"viability, T/C",[38],15.4%
same,"viability, T/C",[39],10.2%
same,"viability, T/C",[1],6.35%
same,"viability, T/C",[40],4.8%
same,"viability, T/C",[3],1.3%
same,"viability, T/C",[41],58%
same,"viability, T/C",[42],12.6%
same,"viability, T/C",[43],10.4%
same,"viability, T/C",[7],6.87%
same,"viability, T/C",[44],4.33%
same,"viability, T/C",[9],1.74%
same,"viability, T/C",[45],36%
same,"viability, T/C",[46],18.3%
same,"viability, T/C",[47],10.3%
same,"viability, T/C",[13],7.63%
same,"viability, T/C",[48],4.58%
same,"viability, T/C",[15],1.81%
same,"viability, T/C",[49],4.92%
same,"viability, T/C",[50],3.7%
same,"viability, T/C",[51],3.69%
same,"viability, T/C",[19],2.84%
same,"viability, T/C",[52],2.04%
same,"viability, T/C",[21],0.8%
same,"viability, T/C",[53],4.87%
same,"viability, T/C",[54],4.58%
same,"viability, T/C",[55],3.82%
same,"viability, T/C",[25],3.33%
same,"viability, T/C",[56],1.4%
same,"viability, T/C",[27],0.62%
same,"viability, T/C",[57],4.11%
same,"viability, T/C",[58],3.78%
same,"viability, T/C",[59],4.08%
same,"viability, T/C",[31],3.15%
same,"viability, T/C",[60],1.92%
same,"viability, T/C",[33],0.73%
Cn1ncnc1[C@H]1c2n[nH]c(=O)c3cc(F)cc(c23)N[C@@H]1c1ccc(F)cc1 + Cc1[nH]c2ccc(F)cc2c1-c1nc2c3cccnc3c3ncccc3c2[nH]1,IC50,second compound 0.0316 µM,149 nM
same,IC50,second compound 0.1 µM,73.5 nM
same,IC50,second compound 0.316 µM,53 nM
same,IC50,second compound 1 µM,< 0.999 nM
same,IC50,second compound 3.16 µM,< 0.999 nM
same,IC50,second compound 10 µM,< 0.999 nM
same,"viability, T/C",[37],105%
same,"viability, T/C",[38],79.6%
same,"viability, T/C",[39],86.7%
same,"viability, T/C",[1],62.3%
same,"viability, T/C",[40],67.7%
same,"viability, T/C",[3],33.4%
same,"viability, T/C",[41],100%
same,"viability, T/C",[42],80.1%
same,"viability, T/C",[43],83%
same,"viability, T/C",[7],48.9%
same,"viability, T/C",[44],53.1%
same,"viability, T/C",[9],32%
same,"viability, T/C",[45],96.4%
same,"viability, T/C",[46],81.9%
same,"viability, T/C",[47],68.9%
same,"viability, T/C",[13],54.8%
same,"viability, T/C",[48],46.5%
same,"viability, T/C",[15],27.5%
same,"viability, T/C",[49],5.11%
same,"viability, T/C",[50],4.97%
same,"viability, T/C",[51],5.21%
same,"viability, T/C",[19],4.33%
same,"viability, T/C",[52],4.79%
same,"viability, T/C",[21],4.17%
same,"viability, T/C",[53],4.43%
same,"viability, T/C",[54],4.31%
same,"viability, T/C",[55],4.37%
same,"viability, T/C",[25],4.14%
same,"viability, T/C",[56],4.64%
same,"viability, T/C",[27],3.96%
same,"viability, T/C",[57],4.02%
same,"viability, T/C",[58],3.63%
same,"viability, T/C",[59],5.14%
same,"viability, T/C",[31],4.68%
same,"viability, T/C",[60],4.53%
same,"viability, T/C",[33],4.33%
O=C(c1cc(Cc2n[nH]c(=O)c3ccccc23)ccc1F)N1CCN(C(=O)C2CC2)CC1 + Cc1[nH]c2ccc(F)cc2c1-c1nc2c3cccnc3c3ncccc3c2[nH]1,IC50,second compound 0.0316 µM,5340 nM
same,IC50,second compound 0.1 µM,3120 nM
same,IC50,second compound 0.316 µM,5530 nM
same,IC50,second compound 1 µM,< 31.6 nM
same,IC50,second compound 3.16 µM,< 31.6 nM
same,IC50,second compound 10 µM,< 31.6 nM
same,"viability, T/C",[1],97.1%
same,"viability, T/C",[2],82.3%
same,"viability, T/C",[3],94.9%
same,"viability, T/C",[4],66.5%
same,"viability, T/C",[5],72.8%
same,"viability, T/C",[6],31%
same,"viability, T/C",[7],89.1%
same,"viability, T/C",[8],83.2%
same,"viability, T/C",[9],69.4%
same,"viability, T/C",[10],57.3%
same,"viability, T/C",[11],62.3%
same,"viability, T/C",[12],23.5%
same,"viability, T/C",[13],72.9%
same,"viability, T/C",[14],82.4%
same,"viability, T/C",[15],74%
same,"viability, T/C",[16],82.3%
same,"viability, T/C",[17],69.8%
same,"viability, T/C",[18],28%
same,"viability, T/C",[19],4.09%
same,"viability, T/C",[20],3.9%
same,"viability, T/C",[21],4.15%
same,"viability, T/C",[22],4.33%
same,"viability, T/C",[23],6.04%
same,"viability, T/C",[24],4.53%
same,"viability, T/C",[25],3.99%
same,"viability, T/C",[26],3.97%
same,"viability, T/C",[27],3.46%
same,"viability, T/C",[28],3.87%
same,"viability, T/C",[29],4.83%
same,"viability, T/C",[30],3.88%
same,"viability, T/C",[31],4.17%
same,"viability, T/C",[32],3.02%
same,"viability, T/C",[33],3.67%
same,"viability, T/C",[34],4.06%
same,"viability, T/C",[35],5.08%
same,"viability, T/C",[36],4.55%
